# pIC50: −log10 of the molar value.
# Target: T1, human TRPC6 (Homo sapiens, UniProt Q9Y210)
# T1 construct: expressed in transfected cells
# T1 sequence (Q9Y210 1-931): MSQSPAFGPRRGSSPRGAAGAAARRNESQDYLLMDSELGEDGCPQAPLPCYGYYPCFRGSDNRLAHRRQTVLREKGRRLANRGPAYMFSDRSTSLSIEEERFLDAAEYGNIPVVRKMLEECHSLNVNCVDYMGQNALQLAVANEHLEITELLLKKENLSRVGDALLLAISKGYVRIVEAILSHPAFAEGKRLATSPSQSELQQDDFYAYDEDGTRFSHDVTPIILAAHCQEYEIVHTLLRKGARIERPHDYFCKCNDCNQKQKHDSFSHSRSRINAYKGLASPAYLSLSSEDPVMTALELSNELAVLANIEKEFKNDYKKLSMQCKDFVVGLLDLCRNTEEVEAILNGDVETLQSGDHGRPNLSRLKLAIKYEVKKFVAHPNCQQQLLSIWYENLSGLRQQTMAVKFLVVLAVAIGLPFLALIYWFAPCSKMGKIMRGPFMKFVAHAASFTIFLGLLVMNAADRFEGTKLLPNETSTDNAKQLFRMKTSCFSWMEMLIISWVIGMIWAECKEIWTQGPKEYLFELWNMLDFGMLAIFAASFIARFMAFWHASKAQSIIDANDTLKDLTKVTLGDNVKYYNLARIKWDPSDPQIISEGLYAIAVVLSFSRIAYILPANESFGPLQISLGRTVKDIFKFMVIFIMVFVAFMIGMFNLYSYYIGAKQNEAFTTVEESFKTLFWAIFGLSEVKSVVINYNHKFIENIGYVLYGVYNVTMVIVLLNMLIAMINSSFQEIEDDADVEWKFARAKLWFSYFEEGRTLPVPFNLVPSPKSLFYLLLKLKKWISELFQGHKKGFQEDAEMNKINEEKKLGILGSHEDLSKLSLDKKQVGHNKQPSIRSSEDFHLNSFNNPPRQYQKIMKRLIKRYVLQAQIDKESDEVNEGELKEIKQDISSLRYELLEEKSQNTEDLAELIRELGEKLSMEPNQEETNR
# Test: High throughput screening assay: Fluo4/AM calcium fluorescence in HEK293/TREx cells expressing human TRPC6, agonist GSK1702934A (single concentration 10 μM and IC50 curves)
# Format: cell-based
# Settings: antagonist effect against human TRPC6, 7 concentrations 20 μM to 0.027 μM, triplicate
# Method in brief: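 HEK293/TREx cells stably carrying tetracycline-induced (1 μg/ml) human TRPC6, loaded with Fluo4/AM (0.5 μM, 60 min, RT), pretreated 2 min with compound (10 μM final in screen), then stimulated with GSK1702934A in high-Ca2+ Ringer's (20 mM Ca2+ final). Fluorescence ratio over ~3 min normalized to no-compound and control-blocker wells; IC50 from triplicate curves.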
row,Structure (SMILES),pIC50
1,"COc1cc(C(=O)N2CCC(c3ccc(N)nn3)CC2)cnc1-c1ccc(C(F)(F)F)cc1 [Compound 65, [4-(6-Amino-pyridazin-3-yl)-piperidin-1-yl]-[5-methoxy-6-(4-trifluoromethyl-phenyl)-pyridin-3-yl]-methanone]",6.07
2,"Nc1ccc(N2CCN(C(=O)c3ccc(-c4ccc(C(F)(F)F)cc4)cc3)CC2)cn1 [Compound 12, [4-(6-Amino-pyridin-3-yl)-piperazin-1-yl]-(4′-trifluoromethyl-biphenyl-4-yl)-methanone]",5.62
3,"COc1cc(C(=O)N2CCC(c3ccc(N)nn3)CC2)ccc1-c1ccnc(C(F)(F)F)c1 [Compound 61, [4-(6-Amino-pyridazin-3-yl)-piperidin-1-yl]-[3-methoxy-4-(2-trifluoromethyl-pyridin-4-yl)-phenyl]-methanone]",5.39
4,COc1cc(C(=O)N2CCC(c3ccc(N)nn3)CC2)ncc1-c1cnc(OCC(F)(F)F)nc1 [Compound 54],6.08
5,"CC[C@@H](C)Oc1ccc(-c2ccc(C(=O)N3CCC(c4ccc(N)nn4)CC3)cc2OC)cn1 [Compound 74, [4-(6-Amino-pyridazin-3-yl)-piperidin-1-yl]-{4-[6-((R)-sec-butoxy)-pyridin-3-yl]-3-methoxy-phenyl}-methanone]",6.85
6,"COc1cc(C(=O)N2CCC(c3ccc(N)nn3)CC2)ccc1-c1ccc(C(F)(F)F)cc1 [Compound 55, [4-(6-Amino-pyridazin-3-yl)-piperidin-1-yl]-(2-methoxy-4′-trifluoromethyl-biphenyl-4-yl)-methanone]",6.37
7,"C[C@@H]1CN(C(=O)c2ccc(-c3ccc(C(F)(F)F)cc3)cc2)CCN1c1ccc(N)nc1 [Compound 113, [(R)-4-(6-Amino-pyridin-3-yl)-3-methyl-piperazin-1-yl]-(4′-trifluoromethyl-biphenyl-4-yl)-methanone]",5.55

# Next, values leading:
row,pIC50,Structure (SMILES)
1,6.05,"COc1cc(C(=O)N2CCC(c3ccc(N)nn3)CC2)ncc1-c1ccc(C)c(C#N)c1 [Compound 51, 5-{6-[4-(6-Amino-pyridazin-3-yl)-piperidine-1-carbonyl]-4-methoxy-pyridin-3-yl}-2-methyl-benzonitrile]"
2,6.70,"COC[C@H]1CN(c2cnc(N)cc2OC)CCN1C(=O)c1cc(OC)c(-c2ccc(F)cc2)cn1 [Compound 98, [(R)-4-(6-Amino-4-methoxy-pyridin-3-yl)-2-methoxymethyl-piperazin-1-yl]-[5-(4-fluoro-phenyl)-4-methoxy-pyridin-2-yl]-methanone]"
3,6.47,"COc1cc(C(=O)N2CCC(c3ccc(N)nn3)CC2)ncc1-c1ccc(OC(C)C)cc1 [Compound 30, [4-(6-Amino-pyridazin-3-yl)-piperidin-1-yl]-[5-(4-isopropoxy-phenyl)-4-methoxy-pyridin-2-yl]-methanone]"
4,6.37,"COc1cc(C(=O)N2CCC(c3ccc(N)nn3)CC2)ncc1-c1ccc2c(c1)OCCO2 [Compound 22, [4-(6-Amino-pyridazin-3-yl)-piperidin-1-yl]-[5-(2,3-dihydro-benzo[l ,4]dioxin-6-yl)-4-methoxy-pyridin-2-yl]-methanone]"
5,6.41,"COc1cc(C(=O)N2CCN(c3cnc(N)cc3OC)C[C@H]2CO)ncc1-c1ccc(C(F)(F)F)cc1 [Compound 101, [(S)-4-(6-Amino-4-methoxy-pyridin-3-yl)-2-hydroxymethyl-piperazin-1-yl]-[4-methoxy-5-(4-trifluoromethyl-phenyl)-pyridin-2-yl]-methanone]"
6,6.52,"COc1cc(C(=O)N2CCN(c3ccc(N)nc3)C[C@@H]2CO)ncc1-c1ccccc1 [Compound 91, [(R)-4-(6-Amino-pyridin-3-yl)-2-hydroxymethyl-piperazin-1-yl]-(4-methoxy-5-phenyl-pyridin-2-yl)-methanone]"
7,6.35,"COc1cc(C(=O)N2CCC(c3ccc(N)nn3)CC2)ncc1-c1ccc(OC(C)C)c(F)c1 [Compound 20, [4-(6-Amino-pyridazin-3-yl)-piperidin-1-yl]-[5-(3-fluoro-4-isopropoxy-phenyl)-4-methoxy-pyridin-2-yl]-methanone]"
8,6.55,"COc1cc(C(=O)N2CCC(c3nnc(N)cc3C)CC2)ncc1-c1ccc(C(F)(F)F)cc1 [Compound 88, [4-(6-Amino-4-methyl-pyridazin-3-yl)-piperidin-1-yl]-[4-methoxy-5-(4-trifluoromethyl-phenyl)-pyridin-2-yl]-methanone]"
9,6.24,"COc1cc(C(=O)N2CCN(c3cnc(N)cc3OC)C[C@@H]2CO)ncc1-c1ccc(C(F)(F)F)cc1 [Compound 95, [(R)-4-(6-Amino-4-methoxy-pyridin-3-yl)-2-hydroxymethyl-piperazin-1-yl]-[4-methoxy-5-(4-trifluoromethyl-phenyl)-pyridin-2-yl]-methanone]"

# Source: patent US11485740B2, “Inhibitors of TRPC6” (Boehringer Ingelheim International GmbH, priority 2018, dated 2022)
